System: Pseudomonas aeruginosa
Assay: Minimum inhibitory concentrations (MICs) against 20 strains of Pseudomonas aeruginosa in Blood Agar Base
Type: cell-based
Protocol: • a) The minimum inhibitory concentrations (MICs) of silver pseudomonate and sodium pseudomonate were determined against 20 strains of Pseudomonas aeruginosa in Blood Agar Base. […] Typical results are presented in Table 2. [formula] [formula]

## Silver Pseudomonate A
20 strains of Pseudomonas aeruginosa, Blood Agar Base, comparison in words
  minimum inhibitory concentrations (MICs): more active than sodium pseudomonate against all strains tested
General statement in words
  activity against Pseudomonas organisms: active

— EP0128338A1, “Silver pseudomonate, compositions containing it and its use in treating pseudomonal infections” (BEECHAM GROUP PLC, priority 1983, dated 1984)
